# In publication PMC9927415, “Tyrosine Kinase Inhibitors Display Potent Activity against Cryptosporidium parvum” (Microbiology Spectrum, 2022):
# Read-outs that look alike come from different tables or passages of the source.
# Assays:
# Assay in all cases: KINOMEscan competitive binding
# [1] = biological target: T1, LYN (Homo sapiens, UniProt P07948)
# T1 construct: purchased DiscoverX (KINOMEscan)
# From the text: (§1) The kinases were expressed as fusions to T7 bacteriophage. This is a sensitive, competitive binding assay where test compounds were used to displace immobilized ATP-site binding probe ligands from kinases of interest. The amount of kinase that remained bound to the immobilized probe ligands on the solid support was quantified. Percentage inhibition data were was plotted on kinome trees using the web-based tool KinMap (http://www.kinhub.org/kinmap) ([60]).
# [2] = biological target: T2, FLT3 (Homo sapiens, UniProt P36888)
# T2 construct: purchased DiscoverX (KINOMEscan)
# T2 sequence (P36888 27-993): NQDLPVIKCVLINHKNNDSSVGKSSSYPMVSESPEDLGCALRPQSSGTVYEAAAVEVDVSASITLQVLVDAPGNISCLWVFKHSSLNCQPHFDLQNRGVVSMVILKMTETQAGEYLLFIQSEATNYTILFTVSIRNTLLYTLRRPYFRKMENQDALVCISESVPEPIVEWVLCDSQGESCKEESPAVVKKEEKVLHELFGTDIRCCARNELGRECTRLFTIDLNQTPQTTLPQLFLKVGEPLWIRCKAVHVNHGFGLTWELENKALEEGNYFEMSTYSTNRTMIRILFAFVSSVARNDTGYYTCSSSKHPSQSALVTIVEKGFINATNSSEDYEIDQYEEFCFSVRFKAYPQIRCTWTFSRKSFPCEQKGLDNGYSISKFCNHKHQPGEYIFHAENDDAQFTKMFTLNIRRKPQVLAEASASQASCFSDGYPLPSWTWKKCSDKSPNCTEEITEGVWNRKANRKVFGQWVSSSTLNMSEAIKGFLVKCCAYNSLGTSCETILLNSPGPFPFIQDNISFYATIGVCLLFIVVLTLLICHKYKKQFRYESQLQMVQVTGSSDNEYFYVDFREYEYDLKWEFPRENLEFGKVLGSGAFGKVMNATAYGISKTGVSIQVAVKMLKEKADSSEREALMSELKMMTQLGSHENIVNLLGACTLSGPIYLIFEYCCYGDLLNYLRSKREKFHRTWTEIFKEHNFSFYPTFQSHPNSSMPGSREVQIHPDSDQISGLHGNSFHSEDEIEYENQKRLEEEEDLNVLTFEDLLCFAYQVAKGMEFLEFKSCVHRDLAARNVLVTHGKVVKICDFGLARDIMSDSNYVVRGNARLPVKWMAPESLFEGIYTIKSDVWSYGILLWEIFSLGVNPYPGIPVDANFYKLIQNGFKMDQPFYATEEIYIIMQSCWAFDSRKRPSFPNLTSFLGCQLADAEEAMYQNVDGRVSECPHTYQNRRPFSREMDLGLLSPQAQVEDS
# From the text: as §1
# [3] = biological target: T3, CDK2 (Homo sapiens, UniProt P24941)
# T3 construct: purchased DiscoverX (KINOMEscan)
# From the text: as §1
# [4] = biological target: T4, PLK1 (Homo sapiens, UniProt P53350); settings: n=1, read-out: Percent inhibition, PLK1
# T4 construct: purchased DiscoverX (KINOMEscan)
# From the text: as §1
# [5] = biological target: T5, TTK (Homo sapiens, UniProt P33981)
# T5 construct: purchased DiscoverX (KINOMEscan)
# T5 sequence (P33981 1-857): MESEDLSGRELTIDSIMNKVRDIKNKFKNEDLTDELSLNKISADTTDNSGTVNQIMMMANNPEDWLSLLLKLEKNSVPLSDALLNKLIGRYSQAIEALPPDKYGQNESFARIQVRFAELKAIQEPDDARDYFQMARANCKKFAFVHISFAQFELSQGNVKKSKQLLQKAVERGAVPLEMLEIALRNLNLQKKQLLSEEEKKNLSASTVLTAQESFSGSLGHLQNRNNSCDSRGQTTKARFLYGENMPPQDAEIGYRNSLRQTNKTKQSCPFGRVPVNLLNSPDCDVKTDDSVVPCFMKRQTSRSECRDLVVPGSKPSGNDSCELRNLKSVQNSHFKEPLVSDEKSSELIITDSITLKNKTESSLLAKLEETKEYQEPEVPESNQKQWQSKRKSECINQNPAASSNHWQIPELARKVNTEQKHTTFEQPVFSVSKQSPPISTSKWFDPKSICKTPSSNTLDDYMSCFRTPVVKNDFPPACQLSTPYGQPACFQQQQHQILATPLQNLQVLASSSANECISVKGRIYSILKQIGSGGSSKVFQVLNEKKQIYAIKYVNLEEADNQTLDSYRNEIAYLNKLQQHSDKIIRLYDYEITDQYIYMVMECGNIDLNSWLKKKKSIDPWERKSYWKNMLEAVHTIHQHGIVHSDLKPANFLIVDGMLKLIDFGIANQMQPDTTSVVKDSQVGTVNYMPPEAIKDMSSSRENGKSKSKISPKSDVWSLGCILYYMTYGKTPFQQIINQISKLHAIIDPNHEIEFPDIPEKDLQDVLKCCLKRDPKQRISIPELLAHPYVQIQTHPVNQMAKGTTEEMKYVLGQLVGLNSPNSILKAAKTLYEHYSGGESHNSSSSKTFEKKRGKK
# From the text: as §1
# [6] = biological target: T6, CLK2 (Homo sapiens, UniProt P49760)
# T6 construct: purchased DiscoverX (KINOMEscan)
# From the text: as §1
# [7] = biological target: T7, CSNK1E (Homo sapiens, UniProt P49674)
# T7 construct: purchased DiscoverX (KINOMEscan)
# From the text: as §1
# [8] = biological target: T8, CSNK1G1 (Homo sapiens, UniProt Q9HCP0)
# T8 construct: purchased DiscoverX (KINOMEscan)
# From the text: as §1
# [9] = biological target: T9, CSNK2A1 (Homo sapiens, UniProt P68400)
# T9 construct: purchased DiscoverX (KINOMEscan)
# From the text: as §1
# [10] = 10 µM, n=1, kinase LYN, read-out: Percent inhibition LYN
# [11] = 10 µM, n=1, kinase FLT3, read-out: Percent inhibition FLT3
# [12] = 10 μM, n = 1, read-out: percent inhibition CDK2
# [13] = 10 µM, n=1, kinase CDK2, read-out: Percent inhibition CDK2
# [14] = KINOMEscan, 10 µM, n=1, read-out: Percent inhibition, TTK
# [15] = 10 µM, n=1, kinase CLK2, read-out: Percent inhibition CLK2
# [16] = 10 µM, n=1, kinase CSNK1E, read-out: Percent inhibition CSNK1E
# [17] = 10 µM, n=1, kinase CSNK1G1, read-out: Percent inhibition CSNK1G1
# [18] = 10 µM, n=1, kinase CSNK2A1, read-out: Percent inhibition CSNK2A1
# [19] = 10 μM, n = 1, read-out: percent inhibition FLT3
# T8 sequence (Q9HCP0 whole entry): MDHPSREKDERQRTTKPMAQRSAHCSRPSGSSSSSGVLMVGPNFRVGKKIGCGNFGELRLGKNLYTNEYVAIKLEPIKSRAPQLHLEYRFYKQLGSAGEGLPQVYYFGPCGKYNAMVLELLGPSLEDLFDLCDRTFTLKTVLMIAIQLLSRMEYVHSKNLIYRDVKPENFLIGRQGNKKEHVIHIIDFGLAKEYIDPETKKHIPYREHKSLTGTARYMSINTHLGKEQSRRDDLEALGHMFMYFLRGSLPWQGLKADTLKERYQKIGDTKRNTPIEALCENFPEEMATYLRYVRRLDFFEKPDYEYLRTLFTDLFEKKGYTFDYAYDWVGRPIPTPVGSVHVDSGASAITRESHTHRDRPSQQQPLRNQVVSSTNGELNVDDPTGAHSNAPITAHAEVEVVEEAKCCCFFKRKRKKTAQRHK
# T6 sequence (P49760 whole entry): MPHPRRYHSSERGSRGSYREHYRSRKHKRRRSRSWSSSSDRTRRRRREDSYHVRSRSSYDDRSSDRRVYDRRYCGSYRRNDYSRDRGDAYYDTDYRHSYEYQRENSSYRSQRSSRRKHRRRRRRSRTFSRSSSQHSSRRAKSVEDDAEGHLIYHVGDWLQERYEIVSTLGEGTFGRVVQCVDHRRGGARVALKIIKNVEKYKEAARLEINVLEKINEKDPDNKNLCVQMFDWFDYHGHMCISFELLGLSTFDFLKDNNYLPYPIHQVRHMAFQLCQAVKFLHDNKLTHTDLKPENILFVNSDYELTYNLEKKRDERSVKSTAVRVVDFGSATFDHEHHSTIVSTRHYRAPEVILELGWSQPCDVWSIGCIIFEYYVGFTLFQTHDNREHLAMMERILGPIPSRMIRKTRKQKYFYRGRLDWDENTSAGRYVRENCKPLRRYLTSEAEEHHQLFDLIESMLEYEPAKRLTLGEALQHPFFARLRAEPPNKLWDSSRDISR
# T9 sequence (P68400 whole entry): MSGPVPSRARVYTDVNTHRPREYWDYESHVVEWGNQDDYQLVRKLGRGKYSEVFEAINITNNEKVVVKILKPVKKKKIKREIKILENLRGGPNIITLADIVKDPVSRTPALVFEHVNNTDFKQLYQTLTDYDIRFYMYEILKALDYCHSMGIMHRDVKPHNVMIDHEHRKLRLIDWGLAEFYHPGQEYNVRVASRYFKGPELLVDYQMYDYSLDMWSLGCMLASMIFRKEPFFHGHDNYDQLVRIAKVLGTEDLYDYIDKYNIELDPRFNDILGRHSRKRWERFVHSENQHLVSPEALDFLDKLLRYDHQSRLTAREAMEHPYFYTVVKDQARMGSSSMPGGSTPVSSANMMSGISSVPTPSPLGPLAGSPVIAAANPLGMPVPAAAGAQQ
# T4 sequence (P53350 whole entry): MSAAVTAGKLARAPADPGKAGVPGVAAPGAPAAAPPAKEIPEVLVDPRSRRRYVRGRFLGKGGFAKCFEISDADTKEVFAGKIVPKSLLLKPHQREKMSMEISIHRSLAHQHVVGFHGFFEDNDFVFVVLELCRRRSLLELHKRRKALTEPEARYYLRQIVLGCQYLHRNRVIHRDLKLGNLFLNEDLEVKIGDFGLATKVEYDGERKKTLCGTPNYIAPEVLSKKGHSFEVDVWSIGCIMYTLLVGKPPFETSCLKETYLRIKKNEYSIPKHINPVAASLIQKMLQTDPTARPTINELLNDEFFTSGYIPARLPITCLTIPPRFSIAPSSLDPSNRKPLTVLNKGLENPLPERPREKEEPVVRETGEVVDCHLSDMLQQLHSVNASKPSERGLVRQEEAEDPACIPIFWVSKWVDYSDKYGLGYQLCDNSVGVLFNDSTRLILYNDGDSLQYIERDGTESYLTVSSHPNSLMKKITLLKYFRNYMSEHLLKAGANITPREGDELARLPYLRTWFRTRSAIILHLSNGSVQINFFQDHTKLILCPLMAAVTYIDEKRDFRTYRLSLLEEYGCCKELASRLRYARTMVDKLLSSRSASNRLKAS
# T7 sequence (P49674 whole entry): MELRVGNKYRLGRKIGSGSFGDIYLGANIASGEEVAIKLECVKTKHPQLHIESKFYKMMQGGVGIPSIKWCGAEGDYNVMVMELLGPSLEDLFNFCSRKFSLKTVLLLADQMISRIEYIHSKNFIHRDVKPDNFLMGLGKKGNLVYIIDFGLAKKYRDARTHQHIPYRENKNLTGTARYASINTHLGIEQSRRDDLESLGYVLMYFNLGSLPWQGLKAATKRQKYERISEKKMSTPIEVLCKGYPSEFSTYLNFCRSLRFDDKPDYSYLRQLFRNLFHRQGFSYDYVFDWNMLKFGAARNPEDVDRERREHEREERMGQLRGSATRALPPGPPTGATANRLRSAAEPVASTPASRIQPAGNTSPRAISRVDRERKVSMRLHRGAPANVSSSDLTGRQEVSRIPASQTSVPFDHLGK
# T1 sequence (P07948 whole entry): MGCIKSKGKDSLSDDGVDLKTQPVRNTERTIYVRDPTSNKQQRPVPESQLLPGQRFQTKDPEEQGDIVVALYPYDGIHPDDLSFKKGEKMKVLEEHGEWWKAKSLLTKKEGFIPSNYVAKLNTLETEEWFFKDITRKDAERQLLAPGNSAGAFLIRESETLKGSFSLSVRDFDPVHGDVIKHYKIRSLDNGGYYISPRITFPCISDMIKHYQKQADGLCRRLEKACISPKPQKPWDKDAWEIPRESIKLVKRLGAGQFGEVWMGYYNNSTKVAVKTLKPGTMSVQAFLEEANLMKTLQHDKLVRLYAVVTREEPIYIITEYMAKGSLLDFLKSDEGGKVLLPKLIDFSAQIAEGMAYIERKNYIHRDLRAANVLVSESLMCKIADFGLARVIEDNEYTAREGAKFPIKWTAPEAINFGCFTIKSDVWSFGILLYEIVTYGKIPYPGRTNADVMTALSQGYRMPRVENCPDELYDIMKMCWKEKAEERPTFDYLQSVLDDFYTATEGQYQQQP
Compound,"inhibition at 10 µM [1, 10] [%]","inhibition at 10 µM [2, 11] [%]","inhibition at 10 µM [3, 12] [%]","inhibition at 10 µM [3, 13] [%]",inhibition at 10 µM [4] [%],"inhibition at 10 µM [5, 14] [%]","inhibition at 10 µM [6, 15] [%]","inhibition at 10 µM [7, 16] [%]","inhibition at 10 µM [8, 17] [%]","inhibition at 10 µM [9, 18] [%]","inhibition at 10 µM [2, 19] [%]","inhibition at 10 µM ([9]; 10 μM, n = 1, read-out: percent inhibition CSNK2A1) [%]","inhibition at 10 µM ([1]; 10 μM, n = 1, read-out: percent inhibition LYN) [%]","inhibition at 10 µM ([5]; 10 μM, n = 1, read-out: percent inhibition TTK) [%]","inhibition at 10 µM ([6]; 10 μM, n = 1, read-out: percent inhibition CLK2) [%]","inhibition at 10 µM ([7]; 10 μM, n = 1, read-out: percent inhibition CSNK1E) [%]","inhibition at 10 µM ([8]; 10 μM, n = 1, read-out: percent inhibition CSNK1G1) [%]"
CN1CCN(c2ccc(Nc3nccc(-c4cnn5ncccc45)n3)cc2C#N)CC1 [Compound 1],0,100,> 99,99.5,0,99.9,100,100,100,100,,,,,,,
COc1ccc(Nc2nccc(-c3cnn4ncccc34)n2)cc1 [Compound 2],0,99.3,> 99,99.9,97.2,100,99.9,100,75.9,82,,,,,,,
Cc1ccc(O)cc1Nc1ccnc(Nc2cccc(C(N)=O)c2)n1 [Compound 3],99.9,89,,0,0,98.7,91.5,100,82.5,0,,,,,,,
Cc1ccc(O)cc1N(C)c1ccnc(Nc2cccc(S(N)(=O)=O)c2)n1 [Compound 4],99.8,92.3,,0,0,91.8,84.5,100,0,0,,,,,,,
Fc1cccc(COc2ccc(Nc3ncnc4c3CN(CCN3CCOCC3)CC4)cc2Cl)c1 [Compound 6],0,0,,0,0,0,0,0,0,0,,,,,,,
COc1cc(Nc2nccc(-c3sc(N)nc3-c3cccc(NC(=O)c4c(F)cccc4F)c3)n2)cc(OC)c1OC [Compound 7],100,99.8,,0,0,99.2,0,99.9,0,0,,,,,,,
C[C@@H](Oc1cc(-c2cnc3ccccn23)sc1C(N)=O)c1ccccc1Cl [Compound 8],0,98.6,,0,,69.8,0,71.7,0,94.6,,,,,,,
c1ccc(COc2cccc(-c3ccnc4[nH]ccc34)c2)cc1 [Compound 9],0,91.1,,0,0,0,0,0,0,100,≥ 90,≥ 99,,,,,
Clc1ccc(Nc2ncc(-c3ccccc3)s2)cc1 [Compound 10],100,97.1,,0,0,0,0,0,0,0,> 90,,> 99,,,,
Nc1ncc2c(-c3ccncc3)c[nH]c2n1 [Compound 11],0,94.5,,0,0,99.5,99.9,100,99.3,0,,,,≥ 99,≥ 99,≥ 99,≥ 99
